Values after ≈ are worked out from the molar mass of the structure shown. Like-named read-outs stand apart in the source and are kept apart here.
Assays:
Type in all cases: cell-based
[1] = test system: methicillin-resistant S. aureus (MRSA); assay: Bouillon dilution assay (MIC90); conditions: Staphylococcus aureus, tryptic soy broth, 37° C., 16 h
Description: Before incubation, 3 was added in decreasing concentrations ([…] to 12.5 μg/ml). After incubation, the OD600 was measured. The experiment was run in triplicate. Ciprofloxacin was used as a positive control.

[2] = test system: Pseudomonas aeruginosa K799/61; assay: Agar diffusion assay; conditions: 50 μL of 0.5 mg in 1 mL methanol per 7 mm hole, n.a. = no activity observed, read-out: diameter of inhibition zone
Description: (§1) Antimicrobial activities of the gulmirecins were determined in a primary screen against Bacillus subtilis ATCC 6633, Staphylococcus aureus SG511, Staphylococcus auricularis DSM 20609, Mycobacterium vaccae IMET 10670, Pseudomonas aeruginosa K799/61, Escherichia coli SG458, Sporobolomyces salmonicolor SBUG 549, Candida albicans ATCC14053 and Penicillium notatum JP 36. To this end, holes with 7 mm diameter were aseptically punched in the respective agar medium. Subsequently, the agar plates were inoculated with the test organisms. 0.5 mg of every test compound was dissolved in 1 mL of methanol, and 50 μL of this solution was transferred to a single hole. Ciprofloxacin and amphotericin B served as positive controls. After evaporation of the solvent, the agar plates were incubated depending on the growth conditions of the test organisms. […] The test results are shown in Table 6 below, wherein the given values represent the diameters of the respective inhibition zone in the agar diffusion assay.

[3] = test system: Mycobacterium vaccae IMET 10670; assay: Agar diffusion assay; conditions: Mycolicibacterium vaccae, IMET10670; 50 μL of 0.5 mg in 1 mL methanol per 7 mm hole; n.a. = no activity observed; read-out: diameter of inhibition zone
Description: as §1

[4] = test system: Staphylococcus auricularis DSM 20609; assay: Agar diffusion assay; conditions: DSM20609, 50 μL of 0.5 mg in 1 mL methanol per 7 mm hole, n.a. = no activity observed, read-out: diameter of inhibition zone
Description: as §1

[5] = test system: Bacillus subtilis ATCC 6633; assay: Agar diffusion assay; conditions: ATCC6633, 50 μL of 0.5 mg in 1 mL methanol per 7 mm hole, n.a. = no activity observed, read-out: diameter of inhibition zone
Description: as §1

[6] = test system: Staphylococcus aureus SG511; assay: Agar diffusion assay; conditions: 50 μL of 0.5 mg in 1 mL methanol per 7 mm hole, n.a. = no activity observed, read-out: diameter of inhibition zone
Description: as §1

[7] = test system: Escherichia coli SG458; assay: Agar diffusion assay; conditions: 50 μL of 0.5 mg in 1 mL methanol per 7 mm hole, n.a. = no activity observed, read-out: diameter of inhibition zone
Description: as §1

[8] = test system: HCT-116 colon carcinoma cells (ACC-581); assay: Cytotoxicity (MTT) assay, antiproliferative activity; conditions: Homo sapiens, 120 h, HCT-116, 5 d incubation
Description: (§2) Half maximal inhibitory concentrations (IC50) in μg/ml of disciformycin A (1) and disciformycin B (2) for inhibiting the proliferative activity of human HCT-116 colon carcinoma cells, mouse fibroblast cells L929, and Chinese hamster ovary CHO-K1 cells were determined. Cells were seeded at 6×10^3 cells per well of 96-well plates (Corning CellBind®) in complete medium (180 μl) and directly treated with disciformycin dissolved in DMSO in serial dilution. The compound was tested in duplicate, as well as the internal solvent control. After 5 d incubation, 5 mg/ml MTT in PBS (20 μL) was added per well and it was further incubated for 2 h at 37° C. The medium was then discarded and cells were washed with PBS (100 μl) before adding 2-propanol/10N HCl (250:1, v/v; 100 μl) in order to dissolve formazan granules. The absorbance at 570 nm was measured using a microplate reader (EL808, Bio-Tek Instruments Inc.). The amount of formazan, i.e. relative absorption, is thereby proportional to the number of actively proliferating cells.

[9] = test system: Chinese hamster ovary CHO-K1 cells (ACC-110); assay: as above; conditions: Cricetulus griseus, 120 h, CHO-K1, 5 d incubation
Description: as §2

[10] = test system: Mouse fibroblast cells L929 (ACC-2); assay: as above; conditions: 120 h, L929, 5 d incubation
Description: as §2

[11] = test system: S. aureus N315 mutant Mt50DscA.10; assay: Susceptibility (MIC) of Disciformycin A-resistant mutant; conditions: Staphylococcus aureus
[12] = test system: S. aureus N315 mutant Mt50DscA.6; assay: as above; conditions: Staphylococcus aureus
[13] = test system: S. aureus N315 mutant Mt50DscA.1; assay: as above; conditions: Staphylococcus aureus
[14] = test system: Staphylococcus aureus (MRSA) DSM-11822; assay: MIC by microbroth dilution; conditions: microbroth dilution, 16 h, 30° C., n.i. = no inhibition up to 67 μg/ml
Description: (§3) Bacterial strains. Bacterial wildtype strains used in susceptibility assays were either part of HZI's strain collection or purchased from the German Collection of Microorgansims and Cell Cultures (Deutsche Sammlung von Mikroorganismen und Zellkulturen, DSMZ).
(§4) Minimum inhibitory concentration (MIC) was determined by microbroth dilution. In brief, overnight cultures of bacteria (EBS medium) were diluted to OD600 0.01. Disciformycin A (1) or B (2) dissolved in DMSO was added directly to the cultures in 96-well plates (Sarstedt, flat bottom) in duplicate and the compound was tested in serial dilution. […] After 16 h incubation at 900 rpm and 30° C. on a microplate shaker (Titramax, Heidolph) absorbance at 600 nm was measured using a microplate reader (POLARstar Omega, BMG Labtech). MIC values were determined by sigmoidal curve fitting.

[15] = test system: Micrococcus luteus DSM 20030; assay: MIC by microbroth dilution; conditions: 16 h, 30° C., n.i. = no inhibition up to 67 μg/ml
Description: as §3, §4

[16] = test system: Staphylococcus aureus N315 (MRSA); assay: MIC by microbroth dilution; conditions: 16 h, 30° C., n.i. = no inhibition up to 67 μg/ml
Description: as §3, §4

[17] = test system: Staphylococcus aureus DSM 346; assay: MIC by microbroth dilution; conditions: Staphylococcus aureus, DSM346, 16 h, 30° C., n.i. = no inhibition up to 67 μg/ml, read-out: MIC
Description: as §3, §4

[18] = test system: Mycobacterium sp. DSM 43270; assay: MIC by microbroth dilution; conditions: 16 h, 30° C., n.i. = no inhibition up to 67 μg/ml
Description: as §3, §4

[19] = test system: Nocardioides simplex DSM 20130; assay: MIC by microbroth dilution; conditions: Pimelobacter simplex, DSM20130, 16 h, 30° C., n.i. = no inhibition up to 67 μg/ml, read-out: MIC
Description: as §3, §4

[20] = test system: Staphylococcus aureus Newman; assay: MIC by microbroth dilution; conditions: 16 h, 30° C., n.i. = no inhibition up to 67 μg/ml
Description: as §3, §4

[21] = test system: Escherichia coli DSM 1116; assay: MIC by microbroth dilution; conditions: 16 h, 30° C., n.i. = no inhibition up to 67 μg/ml
Description: as §3, §4

[22] = test system: Staphylococcus aureus Mu50 (MRSA/VRSA) ATCC 700699; assay: MIC by microbroth dilution; conditions: 16 h, 30° C., n.i. = no inhibition up to 67 μg/ml
Description: as §3, §4

[23] = test system: Mycobacterium diemhoferi DSM 43524; assay: MIC by microbroth dilution; conditions: Mycobacterium, DSM43524, 16 h, 30° C., n.i. = no inhibition up to 67 μg/ml, read-out: MIC
Description: as §3, §4

[24] = test system: Chromobacterium violaceum DSM 30191; assay: MIC by microbroth dilution; conditions: 16 h, 30° C., n.i. = no inhibition up to 67 μg/ml
Description: as §3, §4

[25] = test system: Paenibacillus polymyxa DSM 36; assay: MIC by microbroth dilution; conditions: Paenibacillus polymyxa, DSM36, 16 h, 30° C., n.i. = no inhibition up to 67 μg/ml, read-out: MIC
Description: as §3, §4

[26] = test system: Bacillus subtilis DSM 10; assay: MIC by microbroth dilution; conditions: Bacillus subtilis, DSM10, 16 h, 30° C., n.i. = no inhibition up to 67 μg/ml, read-out: MIC
Description: as §3, §4

[27] = test system: Pseudomonas aeruginosa DSM 50071; assay: MIC by microbroth dilution; conditions: 16 h, 30° C., n.i. = no inhibition up to 67 μg/ml
Description: as §3, §4

[28] = test system: Staphylococcus camosus DSM 20501; assay: MIC by microbroth dilution; conditions: 30° C., n.i. = no inhibition up to 67 μg/ml
Description: as §3, §4

[29] = test system: S. aureus N315 mutant Mt50DscA.4; assay: Susceptibility (MIC) of Disciformycin A-resistant mutant; conditions: Staphylococcus aureus
[30] = test system: S. aureus N315 mutant Mt50DscA.2; assay: as above; conditions: Staphylococcus aureus
[31] = test system: S. aureus N315 mutant Mt50DscA.5; assay: as above; conditions: Staphylococcus aureus
[32] = test system: S. aureus N315 mutant Mt50DscA.11; assay: as above; conditions: Staphylococcus aureus
[33] = test system: S. aureus Newman in PMA-differentiated human THP-1 cell line (macrophages); assay: Intra-macrophage activity
Excerpt: The PMA-differentiated human THP-1 cell line (macrophages) was used as cellular host for infection with S. aureus Newman at an MOI (multiplicity of infection) of 10. […] Intracellular bacteria were recovered and serial dilutions were streaked out on CASO-Agar for cfu counting. The reference drug rifampicin reduced the number of intracellular bacteria by ca. 4 logs (at 8×MIC).

[34] = test system: S. aureus N315 mutant Mt50DscA.8; assay: Susceptibility (MIC) of Disciformycin A-resistant mutant; conditions: Staphylococcus aureus
[35] = test system: S. aureus N315 Mt50DscA.9; assay: as above; conditions: Staphylococcus aureus
[36] = test system: S. aureus N315 mutant Mt50DscA.3; assay: as above; conditions: Staphylococcus aureus
[37] = test system: S. aureus N315 wildtype (WT); assay: Susceptibility (MIC) of S. aureus N315 wildtype; conditions: Staphylococcus aureus
[38] = test system: Sporobolomyces salmonicolor SBUG 549; assay: Agar diffusion assay; conditions: 50 μL of 0.5 mg in 1 mL methanol per 7 mm hole; n.a. = no activity observed
Description: as §1

[39] = test system: Candida albicans ATCC14053; assay: Agar diffusion assay; conditions: 50 μL of 0.5 mg in 1 mL methanol per 7 mm hole; n.a. = no activity observed
Description: as §1

[40] = test system: Penicillium notatum JP 36; assay: Agar diffusion assay; conditions: 50 μL of 0.5 mg in 1 mL methanol per 7 mm hole; n.a. = no activity observed
Description: as §1

[41] = Staphylococcus aureus, read-out: MIC

SMILES: O=C(O)c1cn(C2CC2)c2cc(N3CCNCC3)c(F)cc2c1=O [Ciprofloxacin, reference compound]
- MIC90 [1]: 75.4 µM (≈ 25 µg/mL)
- zone of inhibition at 25 µg/hole [2]: 38 mm
- zone of inhibition at 25 µg/hole [3]: 24 mm
- zone of inhibition at 25 µg/hole [4]: 20 mm
- zone of inhibition at 25 µg/hole [5]: 30 mm
- zone of inhibition at 25 µg/hole [6]: 19 mm
- zone of inhibition at 25 µg/hole [7]: 34 mm

SMILES: C/C=C(/C)[C@H]1C/C=C(\C)[C@@H](O[C@H]2O[C@H](CO)[C@@H](O)[C@@H]2O)[C@H](OC(=O)CC(C)C)C(=O)/C=C/[C@H](C)C(=O)O1 [Compound 2, disciformycin B]
- IC50 [8]: > 10 mg/L
- IC50 [9]: > 10 mg/L
- IC50 [10]: > 10 mg/L
- MIC [11]: > 64 mg/L
- MIC [12]: > 64 mg/L
- MIC [13]: > 64 mg/L
- MIC [14, 41]: 0.6 mg/L (≈ 1.14 µM)
- MIC [14]: 0.6 mg/L (≈ 1.14 µM)
- MIC [15]: n.i.
- MIC [16]: 1.2 mg/L (≈ 2.29 µM)
- MIC ([16]; Staphylococcus aureus, MRSA, read-out: MIC): 1.2 mg/L (≈ 2.29 µM)
- MIC [17]: 3.3 mg/L (≈ 6.29 µM)
- MIC [18]: n.i.
- MIC [19]: 16.6 mg/L (≈ 31.6 µM)
- MIC [20]: 1.2 mg/L (≈ 2.29 µM)
- MIC ([20]; Staphylococcus aureus, NEWMAN, read-out: MIC): 1.2 mg/L (≈ 2.29 µM)
- MIC [21]: n.i.
- MIC [22]: 0.6 mg/L (≈ 1.14 µM)
- MIC [22, 41]: 0.6 mg/L (≈ 1.14 µM)
- MIC [23]: 33.3 mg/L (≈ 63.5 µM)
- MIC [24]: n.i.
- MIC [25]: 16.6 mg/L (≈ 31.6 µM)
- MIC [26]: 0.83 mg/L (≈ 1.58 µM)
- MIC [27]: n.i.
- MIC ([28]; 16 h): 2.4 mg/L (≈ 4.57 µM)
- MIC ([28]; Staphylococcus, DSM20501, 16 h, read-out: MIC): 2.4 mg/L (≈ 4.57 µM)
- MIC [29]: > 64 mg/L
- MIC [30]: > 64 mg/L
- MIC [31]: 16 mg/L (≈ 30.5 µM)
- MIC [32]: 32 mg/L (≈ 61 µM)
- reduction of the number of intracellular bacteria ([33]; 18 h, MOI 10, cfu counting, tested at 1×, 4× and 8×MIC): 3 logs
- cytotoxicity towards THP-1 host cells ([33]; 18 h treatment of infected macrophages): without causing any apparent cytotoxicity
- MIC [34]: > 64 mg/L
- MIC [35]: > 64 mg/L
- MIC [36]: > 64 mg/L
- MIC [37]: 1 mg/L (≈ 1.91 µM)

SMILES: C[C@@H]1[C@H](O)[C@@H](C)/C=C/C=C/C=C/C=C/C=C/C=C/C=C/[C@H](O[C@@H]2O[C@H](C)[C@@H](O)[C@H](N)[C@@H]2O)C[C@@H]2O[C@](O)(C[C@@H](O)C[C@@H](O)[C@H](O)CC[C@@H](O)C[C@@H](O)CC(=O)O[C@H]1C)C[C@H](O)[C@H]2C(=O)O [Amphotericin B]
- diameter of inhibition zone [38]: 19 mm
- diameter of inhibition zone [39]: 22 mm
- diameter of inhibition zone [40]: 18 mm
